Results: paper PMC11783601, “Analogue-Sensitive Inhibition of Histone Demethylases Uncovers Member-Specific Function in Ribosomal Protein Synthesis” (Journal of the American Chemical Society, 2025)
“Also recorded” adds a separate entry of the source.

How the values were obtained:
TET2 = assay: MALDI-based assay for TET2 on 5-mC DNA substrate; type: biochemical, human; settings: MALDI-TOF, 5mC oligonucleotide
Description: Aliquots were kept on ice for 10 minutes before addition of 200
µM 2OG or equivalent volume of water. After 30-60 minutes incubation at 37 °C, 1 µL sample and
1 µL S-DHB matrix were spotted on a MALDI plate and monitored with Bruker FlexControl in
the reflectron positive mode and analyzed on Bruker FlexAnalysis software. Relative inhibition
was monitored via assessing percent product decrease with L-Leu NOG samples compared to no
temperature for 10 minutes.

[1] = target: T1, full-length wild type KDM4C (Homo sapiens, UniProt Q9H3R0); assay: H3K9me3 Western blot of nuclear extracts of transfected HEK293T cells; type: cell-based
T1 construct: HEK293T cells were transfected with full-length wild type KDM4B-E or their respective mutants; host or cells: HEK293T
T1 sequence (Q9H3R0 whole entry): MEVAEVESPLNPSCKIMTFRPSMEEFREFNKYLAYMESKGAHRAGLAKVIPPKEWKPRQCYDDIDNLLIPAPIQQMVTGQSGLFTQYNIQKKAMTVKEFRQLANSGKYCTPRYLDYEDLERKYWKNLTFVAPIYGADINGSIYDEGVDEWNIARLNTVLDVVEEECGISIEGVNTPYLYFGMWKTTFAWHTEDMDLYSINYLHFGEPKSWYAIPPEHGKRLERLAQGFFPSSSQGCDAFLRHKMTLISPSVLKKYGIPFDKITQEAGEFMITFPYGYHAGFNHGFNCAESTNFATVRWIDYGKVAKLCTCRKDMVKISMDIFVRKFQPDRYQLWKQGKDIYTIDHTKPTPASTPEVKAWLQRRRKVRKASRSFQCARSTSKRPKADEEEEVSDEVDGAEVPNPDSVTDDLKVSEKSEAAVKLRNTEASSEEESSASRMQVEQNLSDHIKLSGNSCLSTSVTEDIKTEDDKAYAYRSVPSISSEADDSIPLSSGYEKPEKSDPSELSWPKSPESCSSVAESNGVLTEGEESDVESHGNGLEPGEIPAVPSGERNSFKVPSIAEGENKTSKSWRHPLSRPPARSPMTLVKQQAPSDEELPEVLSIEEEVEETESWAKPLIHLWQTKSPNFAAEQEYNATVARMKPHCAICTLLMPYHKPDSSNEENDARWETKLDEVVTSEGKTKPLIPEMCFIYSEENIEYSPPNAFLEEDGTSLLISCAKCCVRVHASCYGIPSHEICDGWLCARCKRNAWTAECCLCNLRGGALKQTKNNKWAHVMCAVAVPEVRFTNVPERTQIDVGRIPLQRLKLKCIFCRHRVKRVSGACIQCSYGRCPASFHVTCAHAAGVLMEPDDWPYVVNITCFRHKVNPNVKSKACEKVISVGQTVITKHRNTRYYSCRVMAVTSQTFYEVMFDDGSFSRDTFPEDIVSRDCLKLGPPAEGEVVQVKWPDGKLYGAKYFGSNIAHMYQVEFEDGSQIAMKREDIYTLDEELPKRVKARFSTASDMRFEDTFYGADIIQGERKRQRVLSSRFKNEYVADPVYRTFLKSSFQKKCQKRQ
Excerpt: (§1) KDM4B and C are structurally homologous to KDM4A, and KDM4D and E have a catalytic pocket near-identical to that of KDM4A but lack the Tudor and PHD domains known to bind trimethylated lysine in histones (Figure 1B).[11] HEK293T cells were transfected with full-length wild type KDM4B-E or their respective mutants. Western blot analysis of nuclear preparations using the H3K9me3 antibody confirmed all of the proteins to be catalytically active (Figures 4G–N and S32–S35).
(§2) KDM4A mammalian expression plasmid in CMV vector was purchased from Addgene (plasmid #24180). KDM4B mammalian expression plasmid in CMV vector was purchased from Addgene (plasmid #24181). KDM4C mammalian expression plasmid in CMV vector was purchased from Addgene (plasmid #24214). KDM4D mammalian expression plasmid in pReciever vector was purchased from Genecopoia (EX-Z0917-M06.) KDME mammalian expression plasmid in pRP-EXP was designed from Vector Builder. The KDM4A-F185A, KDM4B-F186A, KDM4C -F187A, KDM4D-F189A, and KDM4E F186A mutants were generated using Quikchange Lightening Mutagenesis Kit (Agilent) according to manufacturer’s protocol and confirmed by Sanger […]
(§3) HEK293T/17 cells (ATCC) were grown in Delbucco’s Modified Eagle Medium (DMEM) (Corning) with 10% FBS at 37 °C (Corning), 5% CO2, and 95% relative humidity in a 6-well cell culture plate. When cells reached 90% confluency, 3 µg of plasmid and 6 µg lipofectamine 2000 (Invitrogen: 11668019) were incubated with 100 µL OptiMem. After 5 minutes the plasmid and lipofectamine were combined and incubated at room temperature for 20 minutes and added to the cell culture disk. Cells were returned to the incubator to grow for 4-6 hours. This was followed by treatment of compound treatment (n-octyl IOX121,22 or a specific NOG ester) at indicated concentrations and further culture for specified time. The media was removed, and cells were washed with ice cold PBS (Corning), then trypsinized with TrpLE Express (Gibco). The trypsinization reaction was quenched with DMEM 10% FBS and cells were pelleted then washed once with ice cold PBS. The nuclear extracts were generated by first resuspending the cell pellets in 700 µL nuclear isolation buffer (15 mM Tris pH 7.5, 60 mM KCl, 15 mM NaCl, 5 mM MgCl2, 1 mM CaCl2, 1mm DTT, 2 mM Na3Van, 250 mM sucrose, 1X Pierce protease inhibitor (Thermo Fisher #PIA32955), 1 mM PMSF, 0.3% NP40 diluted to volume with MilliQ H2O) and incubated on ice for 5 minutes.23 The samples were then pelleted by centrifugation at 2000 rcf for 5 minutes.
(§4) The supernatant was removed, and the pelleted nuclei were resuspended in 200 µL Pierce IP lysis buffer (Thermo Fisher #87787) containing 1X Pierce protease inhibitor and left on ice for 5 minutes. The nuclei were then sonicated at 100% amp for 5 minutes (pulsed 1 minute “on”, 20 seconds “rest”) using a Qsonica-Q700, cuphorn sonicator. The samples were pelleted once again at 2000 rcf for 5 minutes and the supernatant containing the nuclear extracts were collected. MgCl2 (1M) solution was added to each sample give a final concentration of 6mM. […]
(§5) Prism with the corresponding bars representing the mean and standard deviation of the population.
(§6) For the time dependent imaging, cells containing the transfected KDM4A mutant were identified by their HA signal. These cells were used to create a selection which was then imposed onto the respective H3K9me3 or BrdU images. The mean signal was then measured for H3K9me3 or BrdU only within the cells expressing the KDM4A mutant. To compare changes in H3K9me3 or BrdU between trials, the quantification values were normalized to the mean signal at t=0. The normalized, mean signal and error for H3K9me3 or BrdU were then plotted in GraphPad Prism.
(§7) 21. General protocol for Western blotting
(§8) Assay samples were mixed with appropriate volume of 4X Laemmli Dye (Bio-Rad), heated at 95 °C for 5 minutes and loaded onto 4–12% Criterion™ XT Bis-Tris protein gels (Bio-Rad #3450123) or in-house prepared SDS-polyacrylamide gel and subjected to electrophoresis […]

[2] = target: T2, full-length wild type KDM4D (Homo sapiens, UniProt Q6B0I6); assay: as above; type: cell-based
T2 construct: HEK293T cells were transfected with full-length wild type KDM4B-E or their respective mutants; host or cells: HEK293T
T2 sequence (Q6B0I6 whole entry): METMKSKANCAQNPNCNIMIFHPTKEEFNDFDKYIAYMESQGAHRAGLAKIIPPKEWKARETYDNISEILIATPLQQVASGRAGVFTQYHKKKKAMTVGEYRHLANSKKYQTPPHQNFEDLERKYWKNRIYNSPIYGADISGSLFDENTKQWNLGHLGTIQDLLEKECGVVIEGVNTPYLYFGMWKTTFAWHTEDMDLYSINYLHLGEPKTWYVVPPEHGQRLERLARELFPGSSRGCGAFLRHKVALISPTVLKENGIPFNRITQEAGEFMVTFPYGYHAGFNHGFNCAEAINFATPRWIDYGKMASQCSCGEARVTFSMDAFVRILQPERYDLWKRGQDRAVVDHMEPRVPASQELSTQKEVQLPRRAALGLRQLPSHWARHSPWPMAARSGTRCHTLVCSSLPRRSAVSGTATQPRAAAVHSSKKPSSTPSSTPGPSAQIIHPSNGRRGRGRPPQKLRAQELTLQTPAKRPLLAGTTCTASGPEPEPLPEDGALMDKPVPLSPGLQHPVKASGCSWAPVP
Excerpt: as §1, §2, §3, §4, §5, §6, §7, §8

[3] = target: T3, full-length wild type KDM4B (Homo sapiens, UniProt O94953); assay: as above; type: cell-based; settings: n-octyl IOX1 10 μM
T3 construct: HEK293T cells were transfected with full-length wild type KDM4B-E or their respective mutants; host or cells: HEK293T
T3 sequence (O94953 whole entry): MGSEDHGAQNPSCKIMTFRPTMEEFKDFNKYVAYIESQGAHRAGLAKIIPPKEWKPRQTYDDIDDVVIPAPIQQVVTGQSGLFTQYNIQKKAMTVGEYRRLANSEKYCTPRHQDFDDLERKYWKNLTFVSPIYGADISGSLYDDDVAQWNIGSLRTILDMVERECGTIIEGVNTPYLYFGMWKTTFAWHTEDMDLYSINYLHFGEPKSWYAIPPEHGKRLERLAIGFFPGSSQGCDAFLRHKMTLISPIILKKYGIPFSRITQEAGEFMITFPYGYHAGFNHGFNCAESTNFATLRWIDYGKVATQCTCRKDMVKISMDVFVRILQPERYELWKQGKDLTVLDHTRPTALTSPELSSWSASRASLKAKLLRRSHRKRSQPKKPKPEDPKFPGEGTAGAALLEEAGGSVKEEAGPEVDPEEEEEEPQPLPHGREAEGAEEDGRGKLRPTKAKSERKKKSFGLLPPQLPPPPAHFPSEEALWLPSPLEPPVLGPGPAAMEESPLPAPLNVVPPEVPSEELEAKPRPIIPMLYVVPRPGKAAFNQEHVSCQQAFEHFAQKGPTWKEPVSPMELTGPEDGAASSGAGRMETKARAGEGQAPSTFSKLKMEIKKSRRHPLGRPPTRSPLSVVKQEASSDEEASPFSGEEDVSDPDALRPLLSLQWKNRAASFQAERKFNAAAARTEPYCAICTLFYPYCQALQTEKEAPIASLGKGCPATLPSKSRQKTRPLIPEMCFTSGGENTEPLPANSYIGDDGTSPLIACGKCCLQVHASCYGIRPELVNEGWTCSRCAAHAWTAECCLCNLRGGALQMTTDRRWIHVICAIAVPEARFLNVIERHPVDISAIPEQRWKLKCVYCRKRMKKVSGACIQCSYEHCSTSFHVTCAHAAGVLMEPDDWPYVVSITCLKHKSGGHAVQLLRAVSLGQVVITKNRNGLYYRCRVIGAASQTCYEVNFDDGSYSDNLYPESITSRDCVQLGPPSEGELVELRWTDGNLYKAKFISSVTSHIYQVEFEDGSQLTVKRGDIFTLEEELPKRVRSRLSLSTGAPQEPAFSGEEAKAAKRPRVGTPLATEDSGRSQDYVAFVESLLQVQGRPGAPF
Excerpt: as §1, §2, §3, §4, §5, §6, §7, §8

[4] = target: T4, full-length wild type KDM4E (Homo sapiens, UniProt B2RXH2); assay: as above; type: cell-based
T4 construct: HEK293T cells were transfected with full-length wild type KDM4B-E or their respective mutants; host or cells: HEK293T
T4 sequence (B2RXH2 whole entry): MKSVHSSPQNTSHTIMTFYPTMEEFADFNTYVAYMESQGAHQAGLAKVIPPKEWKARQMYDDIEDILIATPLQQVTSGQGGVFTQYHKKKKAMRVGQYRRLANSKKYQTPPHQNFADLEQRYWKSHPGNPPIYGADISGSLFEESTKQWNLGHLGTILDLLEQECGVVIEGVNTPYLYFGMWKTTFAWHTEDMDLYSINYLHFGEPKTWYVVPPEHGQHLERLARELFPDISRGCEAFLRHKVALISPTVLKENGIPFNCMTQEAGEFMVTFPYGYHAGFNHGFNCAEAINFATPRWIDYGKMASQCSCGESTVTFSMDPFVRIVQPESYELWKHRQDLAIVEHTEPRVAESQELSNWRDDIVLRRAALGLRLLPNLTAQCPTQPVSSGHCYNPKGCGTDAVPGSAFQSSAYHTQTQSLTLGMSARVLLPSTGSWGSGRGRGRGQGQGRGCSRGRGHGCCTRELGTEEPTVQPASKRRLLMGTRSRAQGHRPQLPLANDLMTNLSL
Excerpt: as §1, §2, §3, §4, §5, §6, §7, §8

| Compound | inhibition of TET2 (TET2) | inhibition of wild type KDM4C H3K9me3 demethylation [1] | inhibition of wild type KDM4D H3K9me3 demethylation [2] | inhibition of wild type KDM4B H3K9me3 demethylation [3] | inhibition of wild type KDM4E H3K9me3 demethylation [4] |
| --- | --- | --- | --- | --- | --- |
| CC(C)CC(NC(=O)C(=O)O)C(=O)O (centres unmarked) [compound 6, N-oxalyl leucine] | No inhibition | – | – | – | – |
| CCCCCCCCOC(=O)c1ccc(O)c2ncccc12 [n-octyl IOX1] | – | Dose-dependent inhibition; also recorded: significantly reduced | Dose-dependent inhibition; also recorded: significantly reduced | Dose-dependent inhibition; also recorded: significantly reduced | Dose-dependent inhibition; also recorded: significantly reduced |
